In patent US12474342B2, “Methods for treating cancer and the use of biomarkers as a predictor of clinical sensitivity to therapies” (CELGENE CORPORATION, priority 2016, dated 2025):
Each block holds one compound with its values, some of them ahead of it.

What was measured:
GSPT1 [1] = molecular target: T1, GSPT1 (Homo sapiens, UniProt P15170+Q96SW2); experiment: GSPT1 protein reduction, western analysis, KG-1; type: cell-based; parameters: reduction in GSPT1 protein level was evaluated in human normal PBMCs; endogenous in cells; host or cells: primary PBMCs from normal donors (ID 4328, 4379) and AML patients (ID 11SH, 09P6); conditions: KG1, 200 nM, 8 or 12 hours
Protocol: (§1) Cells were treated with DMSO alone, 200 nM Compound D, or 200 nM Compound E. After 8 or 12 hours, the expression levels of various cellular components along UPR or apoptosis pathways were measured. […] Reduction of BIP indicates UPR.
(§2) To further investigate the timeline of cellular events upon Compound D treatment, KG1 cells were treated with DMSO alone or 200 nM Compound D. At 2, 4, 6, 8, 10, or 12 hours, the expression levels of various cellular components along ATF4 or apoptosis pathways were measured.
In two sensitive AML cell lines, KG-1 and HL-60, both a concentration-dependent decrease in GSPT1 protein and an increase in RNA expression of ATF3, CHOP, and SRSF3 and SRSF6 NMD transcripts at the 8-hour time point were compared to caspase 3/7 activation (apoptosis) at the 24-hour (FIG. 30A [KG-1]; FIG. 30C [HL-60]) and 48-hour (FIG. 30B [KG-1]; FIG. 30D [HL-60]) time points.
The reduction in the level of GSPT1 protein was concentration-dependent over the range of 3 to 1000 nM in eight of the nine AML cell lines and over the range of 300 to 1000 nM in one relatively insensitive AML cell line. The time course of the reduction in GSPT1 by Compound D also was studied for up to 48 hours. The progressive degradation of GSPT1 over the course of 1 to 20 hours was evident in the presence of all concentrations of Compound D studied from 3 to 300 nM in HNT-34, HL-60, and ML-2 cells, with little GSPT1 remaining by 20 hours at 100 or 300 nM Compound D in HNT-34 or HL-60 cells (FIG. 34 and FIG. 35C). Time-dependent reduction in GSPT1 was also observed in KG-1 and OCI-AML2 cells at 3 to 1000 nM Compound D, with little GSPT1 remaining in KG-1 cells at 100 to 300 nM at 24 hours or in OCI-AML2 cells at 300 and 1000 nM at 24 hours (FIG. 35D). Loss of GSPT1 occurred more slowly in Kasumi-1, AML-193, and F36-P cells.
Compound D-mediated GSPT1 reduction at 8 hours was compared to induction of caspase 3/7 activation (apoptosis) at 12, 24, and 48 hour time points in these nine AML cell lines. […] A positive association (r^2=0.50; R=0.71; p value=4.86E-002) was observed between the level of GSPT1 reduction and apoptosis induction in the AML cell panel (FIG. 36), with >90% GSPT1 reduction correlating with induction of apoptosis.

KG-1 cells = experiment: Anti-proliferation CTG assay, KG-1; type: cell-based, human; conditions: KG1 parental or control shRNA cells, 0.0001 μM to 1 μM, two days
Protocol: The effect of depletion of GSPT1 on the anti-proliferative effect of compound Compound D and Compound E was also determined in human acute myelogenous leukemia cell lines AML and KG1. […]

[2] = tested on: ATF3, DDIT3, cleaved Caspases, cleaved PARP; experiment: UPR and apoptosis pathway components in KG1 cells; type: cell-based, human; conditions: KG1, 200 nM, 8 or 12 hours
Protocol: Cells were treated with DMSO alone or 200 nM Compound D. After 2, 4, or 6 hours, the expression levels of various cellular components along UPR or apoptosis pathways were measured. […] Reduction of BIP indicates UPR.
as §1, §2

MOLM-13 cells = experiment: Anti-proliferation CTG assay, MOLM-13; type: cell-based, human; conditions: 48 hours
Protocol: (§3) A plethora of AML cell lines were treated with serial dilutions of Compound D. IC50 value of the anti-proliferation effect of Compound D (as determined in 72-hour CTG assays) in each cell line is summarized in Table 1.
(§4) The effect of overexpression of GSPT1 on the anti-proliferative effect of Compound D and Compound E was determined in human histiocytic lymphoma cell line U937 and human leukemia cell line MOLM13. Treatment compounds (e.g., Compound D or Compound E) were titrated from 0.001 μM to 10 μM. Cell proliferation was measured by CellTiter-Glo cell viability assay at 48 hours after treatment. […] However, when exogenous GSPT1 was overproduced via the EF1α promoter, as shown in FIGS. 5A-5D, the anti-proliferative effect of Compound D and Compound E reduced.

GSPT1 [3] = molecular target: T1, GSPT1; experiment: GSPT1 protein reduction, western analysis, normal PBMCs; conditions: PBMC, 1 nM to 1000 nM, 20 hours
Protocol: PBMC were treated with 1 nM, 10 nM, 100 nM, or 1000 nM of Compound D or Compound E for 20 hours.

OCI-AML3 cells = experiment: Anti-proliferation CTG assay, OCI-AML3; type: cell-based, human; conditions: AML3 parental or control shRNA cells, 0.0001 μM to 1 μM, two days
Protocol: as §3
The effect of depletion of GSPT1 on the anti-proliferative effect of compound Compound D and Compound E was also determined in human acute myelogenous leukemia cell lines AML and KG1. Cells were infected with lentiviral vectors expressing control shRNA, shGSPT1-1 or shGSPT1-3 for 7 days and then treated with DMSO, Compound D or Compound E in a titration from 0.0001 μM to 1 μM. Two days after treatment, cell proliferation was measured by CellTiter-Glo cell viability. […] Both shGSPT1-1 and shGSPT1-3 reduced the expression of GSPT1, eRF1, and slightly of CRBN.

U-937 cells = experiment: Anti-proliferation CTG assay, U-937; type: cell-based, human; conditions: 48 hours
Protocol: as §3, §4

p-eIF2α = p-eIF2α immunoblot, OCI-AML2; type: cell-based, human; conditions: 300 μg/ml G418 or 200 nM Compound D
Protocol: (§5) It is known that amino acid starvation causes GCN2 activation, which phosphorylates eIF2α. Because GSPT1 mediates normal translation termination, it is hypothesized that depletion of GSPT1 by Compound D may cause readthrough of stop codons. Whether the translational readthrough induced by Compound D contributes to the increased levels of p-eIF2α was investigated. OCI-AML2 cells stably expressing the Fluc/Nluc-G36A readthrough reporter were treated with 300 μg/ml G418 or 200 nM Compound D for 2, 4, 6, 8, 10, 12, or 16 hours. The levels of p-eIF2α were measured by immunoblot analysis. AML2 readthrough assay was conducted to measure the readthrough reporter.

[4] = tested on: translational readthrough; experiment: AML2 readthrough assay (Fluc/Nluc-G36A reporter), OCI-AML2; type: cell-based, human; conditions: 300 μg/ml G418 or 200 nM Compound D
Protocol: as §5

GSPT1 [5] = molecular target: T1, GSPT1; experiment: GSPT1 degradation in NB4 cell line; type: cell-based; parameters: endogenous in cells
IKZF1 = IKZF1 (Homo sapiens, UniProt Q13422+Q96SW2)
Chain of IKZF1 (Q13422 whole entry): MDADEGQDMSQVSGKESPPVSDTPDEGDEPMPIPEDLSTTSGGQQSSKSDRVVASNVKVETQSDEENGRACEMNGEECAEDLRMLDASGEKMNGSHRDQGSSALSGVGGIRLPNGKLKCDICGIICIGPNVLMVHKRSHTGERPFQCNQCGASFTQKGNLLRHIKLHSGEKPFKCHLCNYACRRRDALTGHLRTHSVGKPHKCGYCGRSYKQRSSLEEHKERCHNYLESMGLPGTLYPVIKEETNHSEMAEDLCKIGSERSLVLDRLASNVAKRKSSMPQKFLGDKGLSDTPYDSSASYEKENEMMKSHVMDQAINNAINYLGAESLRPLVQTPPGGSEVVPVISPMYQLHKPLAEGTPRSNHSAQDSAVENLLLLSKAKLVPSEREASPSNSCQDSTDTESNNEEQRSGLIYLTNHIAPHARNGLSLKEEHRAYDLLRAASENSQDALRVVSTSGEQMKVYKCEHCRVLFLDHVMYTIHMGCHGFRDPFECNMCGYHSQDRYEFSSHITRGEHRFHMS
Chain of IKZF1 (Q96SW2 whole entry): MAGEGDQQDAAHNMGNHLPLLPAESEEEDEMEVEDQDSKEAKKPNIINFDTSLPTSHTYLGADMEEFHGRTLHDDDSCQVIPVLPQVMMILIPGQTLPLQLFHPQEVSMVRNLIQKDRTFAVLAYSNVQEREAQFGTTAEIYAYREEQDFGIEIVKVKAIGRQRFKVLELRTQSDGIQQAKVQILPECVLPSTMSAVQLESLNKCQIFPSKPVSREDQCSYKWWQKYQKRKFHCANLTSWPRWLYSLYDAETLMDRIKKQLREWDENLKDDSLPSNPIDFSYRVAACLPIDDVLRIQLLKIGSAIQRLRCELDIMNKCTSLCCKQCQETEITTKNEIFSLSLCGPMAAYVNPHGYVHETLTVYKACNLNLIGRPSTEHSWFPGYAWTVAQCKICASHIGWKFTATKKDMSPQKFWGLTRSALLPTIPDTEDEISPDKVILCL
Chain of IKZF1 (Q16531 whole entry partner): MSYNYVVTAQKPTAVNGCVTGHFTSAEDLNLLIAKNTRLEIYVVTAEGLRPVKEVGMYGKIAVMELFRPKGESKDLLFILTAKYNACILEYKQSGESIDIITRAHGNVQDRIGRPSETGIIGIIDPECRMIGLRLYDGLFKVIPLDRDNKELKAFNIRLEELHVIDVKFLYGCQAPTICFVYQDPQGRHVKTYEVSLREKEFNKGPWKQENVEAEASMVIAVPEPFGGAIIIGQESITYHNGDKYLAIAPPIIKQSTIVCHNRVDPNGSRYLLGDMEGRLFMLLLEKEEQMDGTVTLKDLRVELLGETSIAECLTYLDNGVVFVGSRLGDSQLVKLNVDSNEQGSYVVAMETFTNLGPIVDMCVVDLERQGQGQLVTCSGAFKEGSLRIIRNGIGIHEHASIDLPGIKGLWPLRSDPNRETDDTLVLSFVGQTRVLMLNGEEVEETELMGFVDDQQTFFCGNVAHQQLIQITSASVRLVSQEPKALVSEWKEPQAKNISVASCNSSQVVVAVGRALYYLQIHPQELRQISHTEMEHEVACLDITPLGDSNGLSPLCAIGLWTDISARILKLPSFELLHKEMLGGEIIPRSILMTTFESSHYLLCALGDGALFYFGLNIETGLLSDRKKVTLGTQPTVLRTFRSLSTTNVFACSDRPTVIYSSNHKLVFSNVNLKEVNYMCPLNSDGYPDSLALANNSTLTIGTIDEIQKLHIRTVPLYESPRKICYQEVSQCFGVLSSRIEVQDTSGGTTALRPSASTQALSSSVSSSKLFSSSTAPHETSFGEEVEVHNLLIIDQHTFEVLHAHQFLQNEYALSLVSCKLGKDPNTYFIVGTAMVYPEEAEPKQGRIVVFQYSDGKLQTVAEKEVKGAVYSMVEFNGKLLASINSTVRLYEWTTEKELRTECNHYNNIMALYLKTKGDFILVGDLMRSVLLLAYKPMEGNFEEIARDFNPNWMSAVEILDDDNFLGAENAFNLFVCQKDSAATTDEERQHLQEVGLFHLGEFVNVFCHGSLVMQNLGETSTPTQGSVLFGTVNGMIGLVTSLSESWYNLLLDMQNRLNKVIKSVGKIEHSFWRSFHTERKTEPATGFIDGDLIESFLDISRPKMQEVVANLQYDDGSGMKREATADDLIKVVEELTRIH

T1 sequence (P15170 1-637 isoform P15170-3): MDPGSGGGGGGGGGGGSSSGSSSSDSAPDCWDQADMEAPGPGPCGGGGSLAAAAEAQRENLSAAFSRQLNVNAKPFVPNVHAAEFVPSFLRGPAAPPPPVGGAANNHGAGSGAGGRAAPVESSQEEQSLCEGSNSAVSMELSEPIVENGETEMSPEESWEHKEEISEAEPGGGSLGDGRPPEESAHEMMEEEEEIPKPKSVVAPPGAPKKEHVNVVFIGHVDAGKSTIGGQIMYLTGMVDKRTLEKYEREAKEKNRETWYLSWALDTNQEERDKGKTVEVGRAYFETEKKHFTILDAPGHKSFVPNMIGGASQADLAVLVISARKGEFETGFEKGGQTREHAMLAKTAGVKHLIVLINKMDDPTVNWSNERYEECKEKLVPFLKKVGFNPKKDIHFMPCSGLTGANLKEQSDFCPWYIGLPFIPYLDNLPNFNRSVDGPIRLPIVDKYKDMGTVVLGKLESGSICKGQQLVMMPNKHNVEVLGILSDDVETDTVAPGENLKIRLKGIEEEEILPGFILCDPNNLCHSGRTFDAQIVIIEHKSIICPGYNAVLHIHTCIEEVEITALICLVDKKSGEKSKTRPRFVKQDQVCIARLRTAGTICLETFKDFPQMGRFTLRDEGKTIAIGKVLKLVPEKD
T1 sequence (Q96SW2 whole entry): as the sequence (Q96SW2 whole entry) above
T1 sequence (Q16531 whole entry partner): as the sequence (Q16531 whole entry partner) above

degradation of GSPT1 (GSPT1 [1]): induced degradation
expression of GSPT1 (GSPT1 [3]): decreased the expression of GSPT1
Structure (SMILES): O=C1CCC(N2Cc3cc(CNC(=O)C(F)(F)c4ccc(F)cc4)ccc3C2=O)C(=O)N1 (stereo not shown) [Compound E, N-((2-(2,6-dioxopiperidin-3-yl)-1-oxoisoindolin-5-yl)methyl)-2,2-difluoro-2-(4-fluorophenyl)acetamide]
cell proliferation (CellTiter-Glo) (KG-1 cells): exhibited anti-proliferative effect, particularly at high concentration
level of ATF3, DDIT3, cleaved Caspase-3, cleaved Caspase-8, and cleaved PARP [2]: increased the level
anti-proliferative effect (MOLM-13 cells; MOLM13 CRBN -/- cells): completely abolished
cell proliferation (CellTiter-Glo) (MOLM-13 cells; MOLM13 parental cells, 0.001 μM to 10 μM): inhibited cell proliferation
cell proliferation (CellTiter-Glo) (OCI-AML3 cells): exhibited anti-proliferative effect, particularly at high concentration
anti-proliferative effect (U-937 cells; U937 CRBN -/- cells): completely abolished
cell proliferation (CellTiter-Glo) (U-937 cells; U937 parental cells, 0.001 μM to 10 μM): inhibited cell proliferation

Structure (SMILES): CN[C@@H]1[C@@H](O)[C@@H](O[C@@H]2[C@@H](O)[C@H](O[C@H]3O[C@H]([C@@H](C)O)[C@@H](O)[C@H](O)[C@H]3N)[C@@H](N)C[C@H]2N)OC[C@]1(C)O [Compound G418, G418, reference compound]
levels of p-eIF2α (p-eIF2α): little effect
translational readthrough [4]: induced translational readthrough at a comparable level

effect on GSPT1 level (GSPT1 [5]): no significant effect
Structure (SMILES): Nc1cccc2c1C(=O)N(C1CCC(=O)NC1=O)C2=O (stereo not shown) [pomalidomide, reference compound]
effect on IKZF1 level (IKZF1): induced degradation of IKZF1 at much lower concentrations than Compound D
